Assay: xn = mol fraction of the nth substance listed
Details: 100 kPa, Liquid; for speed of sound: Sing-around technique in a fixed-path interferometer; for mass density: Vibrating tube method

COCCOCCO [2-(2-methoxyethoxy)ethanol] + O
Details	mass density [kg/m3]	speed of sound [m/s]
283.15 K, x1 = 0.9373	–	1473.4
283.15 K, x1 = 0.9483	1029.62	1472.6
283.15 K, x1 = 0.9601	1029.5	1471.2
283.15 K, x1 = 0.9674	1029.29	1470.8
283.15 K, x1 = 0.9893	1028.84	1468.4
283.15 K, x1 = 0.9932	1028.73	1468.6
288.15 K, x1 = 0.9373	–	1455.8
288.15 K, x1 = 0.9483	1025.24	1455.1
288.15 K, x1 = 0.9601	1025.13	1453.9
288.15 K, x1 = 0.9674	1024.9	1453.3
288.15 K, x1 = 0.9893	1024.45	1451
288.15 K, x1 = 0.9932	1024.35	1451
293.15 K, x1 = 0.9373	–	1438.7
293.15 K, x1 = 0.9483	1020.87	1438
293.15 K, x1 = 0.9601	1020.74	1436.7
293.15 K, x1 = 0.9674	1020.52	1436.1
293.15 K, x1 = 0.9893	1020.06	1433.7
293.15 K, x1 = 0.9932	1019.95	1433.4
298.15 K, x1 = 0.9373	–	1421.6
298.15 K, x1 = 0.9483	1016.47	1420.8
298.15 K, x1 = 0.9601	1016.34	1419.5
298.15 K, x1 = 0.9674	1016.12	1418.9
298.15 K, x1 = 0.9893	1015.65	1416.4
298.15 K, x1 = 0.9932	1015.55	1416.1
303.15 K, x1 = 0.9373	–	1404.5
303.15 K, x1 = 0.9483	1012.06	1403.6
303.15 K, x1 = 0.9601	1011.93	1402.3
303.15 K, x1 = 0.9674	1011.71	1401.7
303.15 K, x1 = 0.9893	1011.24	1399.1
303.15 K, x1 = 0.9932	1011.12	1398.9
308.15 K, x1 = 0.9373	–	1387.3
308.15 K, x1 = 0.9483	1007.63	1386.5
308.15 K, x1 = 0.9601	1007.5	1385.1
308.15 K, x1 = 0.9674	1007.28	1384.5
308.15 K, x1 = 0.9893	1006.8	1381.9
308.15 K, x1 = 0.9932	1006.69	1381.6
313.15 K, x1 = 0.9373	–	1370.3
313.15 K, x1 = 0.9483	1003.19	1369.4
313.15 K, x1 = 0.9601	1003.06	1368.1
313.15 K, x1 = 0.9674	1002.83	1367.5
313.15 K, x1 = 0.9893	1002.35	1364.9
313.15 K, x1 = 0.9932	1002.24	1364.6
323.15 K, x1 = 0.9373	–	1336.5
323.15 K, x1 = 0.9483	994.251	1335.6
323.15 K, x1 = 0.9601	994.119	1334.3
323.15 K, x1 = 0.9674	993.893	1333.7
323.15 K, x1 = 0.9893	993.397	1330.9
323.15 K, x1 = 0.9932	993.288	1330.3
333.15 K, x1 = 0.9373	–	1302.9
333.15 K, x1 = 0.9483	985.224	1302.1
333.15 K, x1 = 0.9601	985.089	1300.7
333.15 K, x1 = 0.9674	984.87	1300.2
333.15 K, x1 = 0.9893	984.365	1297.3
333.15 K, x1 = 0.9932	984.259	1296.7
343.15 K, x1 = 0.9373	–	1269.6
343.15 K, x1 = 0.9483	976.029	1268.8
343.15 K, x1 = 0.9601	975.972	1267.4
343.15 K, x1 = 0.9674	975.754	1266.9
343.15 K, x1 = 0.9893	975.241	1263.9
343.15 K, x1 = 0.9932	975.146	1263.3

CCOCCO [2-ethoxyethan-1-ol] + O
Details	mass density, x1 = 0.9426 [kg/m3]	mass density, x1 = 0.949 [kg/m3]	mass density, x1 = 0.9549 [kg/m3]	mass density, x1 = 0.9567 [kg/m3]	mass density, x1 = 0.967 [kg/m3]	speed of sound, x1 = 0.9426 [m/s]	speed of sound, x1 = 0.949 [m/s]	speed of sound, x1 = 0.9549 [m/s]	speed of sound, x1 = 0.9567 [m/s]	speed of sound, x1 = 0.967 [m/s]
283.15 K	943.675	943.444	943.15	943.112	942.599	1364	1365.8	1366.2	1366.8	1361.6
288.15 K	939.208	938.975	938.68	938.638	938.12	1346.2	1347.5	1347.9	1348.4	1343.5
293.15 K	934.713	934.479	934.183	934.14	933.622	1328.3	1329.2	1329.6	1330.2	1325.6
298.15 K	930.19	929.953	929.657	929.614	929.099	1310.5	1311.1	1311.3	1311.8	1307.8
303.15 K	925.638	925.399	925.102	925.055	924.54	1292.8	1293	1293.2	1292.6	1289.8
308.15 K	921.054	920.815	920.517	920.467	919.951	1275	1275.3	1275.2	1274.3	1272
313.15 K	916.435	916.194	915.892	915.843	915.328	1257.4	1257.6	1256.6	1256.1	1254.3
323.15 K	907.087	906.839	906.54	906.493	905.969	1222.2	1222.2	1220.3	1220.2	1218.9
333.15 K	897.58	897.329	897.036	896.985	896.461	1187.1	1186.9	1185.1	1184.9	1183.7
343.15 K	887.911	887.628	887.337	887.297	886.774	1152	1151.1	1150.1	1149.8	1148.6

CCOCCOCCO [3,6-dioxa-1-octanol] + O
Details	mass density, x1 = 0.9674 [kg/m3]	mass density, x1 = 0.974 [kg/m3]	mass density, x1 = 0.9826 [kg/m3]	mass density, x1 = 0.9887 [kg/m3]	mass density, x1 = 0.9899 [kg/m3]	speed of sound, x1 = 0.9674 [m/s]	speed of sound, x1 = 0.974 [m/s]	speed of sound, x1 = 0.9826 [m/s]	speed of sound, x1 = 0.9887 [m/s]	speed of sound, x1 = 0.9899 [m/s]
283.15 K	997.734	997.587	997.387	997.339	997.227	1430.8	1430.3	1429.4	1429.6	1429.6
288.15 K	993.31	993.16	992.963	992.908	992.793	1412.8	1412.2	1411.4	1411.4	1411.2
293.15 K	988.877	988.725	988.528	988.475	988.357	1394.9	1394.3	1393.5	1393.6	1393.3
298.15 K	984.434	984.285	984.088	984.028	983.913	1377.3	1376.5	1375.7	1375.7	1375.4
303.15 K	979.981	979.829	979.636	979.572	979.459	1359.6	1358.8	1358	1357.9	1357.5
308.15 K	975.514	975.363	975.164	975.102	974.991	1342	1341.3	1340.5	1340.1	1340
313.15 K	971.029	970.88	970.684	970.62	970.511	1324.4	1323.9	1323.1	1322.7	1322.5
323.15 K	962.022	961.873	961.673	961.608	961.499	1289.8	1289.3	1288.5	1287.9	1287.8
333.15 K	952.945	952.794	952.591	952.534	952.422	1255.6	1255	1254.2	1253.7	1253.5
343.15 K	943.775	943.629	943.425	943.381	943.264	1221.7	1221.1	1220.3	1220	1219.7
